Reference: ChEMBL document CHEMBL1139193, “Application of the Suzuki-Miyaura cross-coupling to increase antimicrobial potency generates promising novel antibacterials” (Bioorg Med Chem Lett, 2007)
Values after ≈ are worked out from the molar mass of the structure shown. Active and inactive are the calls of the source. The rule behind the calls is not given here. Where a SMILES comes first, the peptide text is derived from it. [ ]: non-standard residue; d: D form. Bip = N[C@@H](Cc1ccc(-c2ccccc2)cc1)C(=O)O; Phe(4-I) = N[C@@H](Cc1ccc(I)cc1)C(=O)O

Experiments:
[1] = test system: Staphylococcus epidermidis; assay: Antibacterial activity against methicillin-resistant Staphylococcus epidermidis; format: functional
Streptococcus pyogenes [2] = assay: Antibacterial activity against Streptococcus pyogenes; format: functional
Staphylococcus aureus [3] = assay: Antibacterial activity against Staphylococcus aureus; format: functional
Staphylococcus aureus [4] = assay: Antibacterial activity against methicillin-resistant Staphylococcus aureus; format: functional
[5] = Toxicity assessed as hemolysis of human erythrocytes at 500 ug/mL; format: cell-based, Erythrocyte; conditions: read-out: Activity
Streptococcus pyogenes [6] = assay: Antibacterial activity against Streptococcus pyogenes upto 100 ug/mL; format: functional, organism-based
Staphylococcus aureus [7] = assay: Antibacterial activity against Staphylococcus aureus upto 100 ug/mL; format: functional, organism-based
Staphylococcus aureus [8] = assay: Antibacterial activity against methicillin-resistant Staphylococcus aureus upto 100 ug/mL; format: functional, organism-based
[9] = Toxicity assessed as hemolysis of human erythrocytes; format: cell-based, Erythrocyte

SMILES	MIC [1] [µM]	Activity (Streptococcus pyogenes [2])	MIC (Staphylococcus aureus [3]) [µM]	MIC (Staphylococcus aureus [4]) [µM]	other results
N=C(N)NCCC[C@H](NC(=O)[C@H](Cc1ccc(-c2ccccc2-c2ccccc2)cc1)NC(=O)[C@@H](N)CCCNC(=N)N)C(N)=O	6.4 (≈ 4.02 µg/mL)	inactive	28 (≈ 17.6 µg/mL)	24 (≈ 15.1 µg/mL)	
CC(C)(C)c1ccc(-c2ccc(C[C@H](NC(=O)[C@@H](N)CCCNC(=N)N)C(=O)N[C@@H](CCCNC(=N)N)C(N)=O)cc2)cc1	4.1 (≈ 2.5 µg/mL)		11 (≈ 6.7 µg/mL)	9.7 (≈ 5.91 µg/mL)	MIC (Streptococcus pyogenes [2]): 25 µM (≈ 15.2 µg/mL)
CCCCc1ccc(-c2ccc(C[C@H](NC(=O)[C@@H](N)CCCNC(=N)N)C(=O)N[C@@H](CCCNC(=N)N)C(N)=O)cc2)cc1	4.1 (≈ 2.5 µg/mL)		9 (≈ 5.48 µg/mL)	7 (≈ 4.26 µg/mL)	MIC (Streptococcus pyogenes [2]): 16 µM (≈ 9.74 µg/mL); hemolysis at 500 ug/mL [5]: 40%
N=C(N)NCCC[C@H](NC(=O)[C@H](Cc1ccc(-c2ccc3ccccc3c2)cc1)NC(=O)[C@@H](N)CCCNC(=N)N)C(N)=O	5 (≈ 3.01 µg/mL)	inactive	25 (≈ 15.1 µg/mL)	25 (≈ 15.1 µg/mL)	
N=C(N)NCCC[C@H](NC(=O)[C@H](Cc1ccc(/C=C/c2ccccc2)cc1)NC(=O)[C@@H](N)CCCNC(=N)N)C(N)=O	14 (≈ 8.1 µg/mL)	inactive			Activity (Staphylococcus aureus [3]): inactive; Activity (Staphylococcus aureus [4]): inactive
N=C(N)NCCC[C@H](NC(=O)[C@H](Cc1ccc(-c2cccc3ccccc23)cc1)NC(=O)[C@@H](N)CCCNC(=N)N)C(N)=O	8.3 (≈ 5 µg/mL)	inactive		29 (≈ 17.5 µg/mL)	Activity (Staphylococcus aureus [3]): inactive
N=C(N)NCCC[C@H](NC(=O)[C@H](Cc1ccc(-c2ccccc2)cc1)NC(=O)[C@@H](N)CCCNC(=N)N)C(N)=O (H-Arg-[Bip]-Arg-NH2)	59 (≈ 32.6 µg/mL)				Activity (Streptococcus pyogenes [6]): inactive; Activity (Staphylococcus aureus [7]): inactive; Activity (Staphylococcus aureus [8]): inactive
Cc1cc(C)cc(-c2ccc(C[C@H](NC(=O)[C@@H](N)CCCNC(=N)N)C(=O)N[C@@H](CCCNC(=N)N)C(N)=O)cc2)c1	9 (≈ 5.23 µg/mL)	inactive			Activity (Staphylococcus aureus [3]): inactive; Activity (Staphylococcus aureus [4]): inactive
N=C(N)NCCC[C@H](NC(=O)[C@H](Cc1ccc(I)cc1)NC(=O)[C@@H](N)CCCNC(=N)N)C(N)=O (H-Arg-[Phe(4-I)]-Arg-NH2)	116 (≈ 69.9 µg/mL)				Activity (Streptococcus pyogenes [6]): inactive; Activity (Staphylococcus aureus [7]): inactive; Activity (Staphylococcus aureus [8]): inactive
N=C(N)NCCC[C@H](NC(=O)[C@H](Cc1ccc(-c2ccc(-c3ccccc3)cc2)cc1)NC(=O)[C@@H](N)CCCNC(=N)N)C(N)=O	4.8 (≈ 3.02 µg/mL)		9.1 (≈ 5.72 µg/mL)	8.3 (≈ 5.22 µg/mL)	MIC (Streptococcus pyogenes [2]): 20 µM (≈ 12.6 µg/mL); EC50 [9]: 420 µg/mL (≈ 668 µM)
N=C(N)NCCC[C@H](NC(=O)[C@H](Cc1ccc(-c2cccc(-c3ccccc3)c2)cc1)NC(=O)[C@@H](N)CCCNC(=N)N)C(N)=O	4.8 (≈ 3.02 µg/mL)	inactive	16 (≈ 10.1 µg/mL)	11 (≈ 6.92 µg/mL)	
